According to patent publication US9890147B2 (BAYER PHARMA AKTIENGESELLSCHAFT, priority 2012, dated 2018):

Legend:
[1] = tested on: MOLM-13 cells; assay: Cell proliferation assay (alamarBlue), MOLM-13; format: cell-based; conditions: Homo sapiens, 96 hours incubation, inhibition of cell proliferation
Outline: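 Cells in RPMI1640/10% FCS read by alamarBlue fluorescence (ex 530, em 590 nm) after overnight 37 °C incubation, then treated at 1E-5 to 1E-8 M for 96 h. Pre-treatment values subtracted from endpoint values and compared with buffer-only wells; IC50 is 50% proliferation inhibition.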

[2] = target: T1, BRD4 (BD1) (Homo sapiens, UniProt O60885); assay: Binding assay BRD4/acetylated peptide H4 (TR-FRET protein-protein interaction assay)
T1 construct: with relatively long constructs also being possible, preferably amino acids 44-168; made in house; host or cells: E. coli
Outline: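 His6-BRD4 BD1 (aa 67-152, E. coli), usually 10 nM, with biotinylated tetra-acetylated H4 peptide in HEPES pH 7.5 buffer; 11 compound concentrations 0.1 nM–20 μM in duplicate, 10 min preincubation, 1 h at 22 °C then ≥3 h at 4 °C. TR-FRET 665/620 ratio; IC50 by 4-parameter fit.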

Structure (SMILES)	IC50 [1] [nM]	IC50 [2] [nM]
CNC(=O)N1N=C(c2ccc(N3CCN(C)CC3)cc2)c2cc(Cl)c(OC(F)(F)F)cc2CC1C (racemic) [Example 213, (±)-8-chloro-N,4-dimethyl-1-[4-(4-methylpiperazin-1-yl)phenyl]-7-(trifluoromethoxy)-4,5-dihydro-3H-2,3-benzodiazepine-3-carboxamide]	860	360
CNC(=O)N1N=C(c2ccc(N3CCC(NC(C)=O)CC3)cc2)c2cc(OC)c(OC)cc2CC1C (racemic) [Example 182, (±)-1-[4-(4-acetamidopiperidin-1-yl)phenyl]-7,8-dimethoxy-N,4-dimethyl-4,5-dihydro-3H-2,3-benzodiazepine-3-carboxamide]	400	50
CNC(=O)N1N=C(c2ccc(-c3cncc(F)c3)cc2)c2cc(OC)c(OC)cc2CC1C (racemic) [Example 122, (±)-1-[4-(5-fluoropyridin-3-yl)phenyl]-7,8-dimethoxy-N,4-dimethyl-4,5-dihydro-3H-2,3-benzodiazepine-3-carboxamide]	660	60
CNC(=O)N1N=C(c2ccc(-c3cn(C)nn3)cc2)c2cc(OC)c(OC)cc2C[C@@H]1C [Example 45.1, (4S)-7,8-dimethoxy-N,4-dimethyl-1-[4-(1-methyl-1H-1,2,3-triazol-4-yl)phenyl]-4,5-dihydro-3H-2,3-benzodiazepine-3-carboxamide]	220	70
CNC(=O)N1N=C(c2ccc(-c3cncnc3)cc2)c2cc(OC)c(OC)cc2CC1C (racemic) [Example 111, (±)-7,8-dimethoxy-N,4-dimethyl-1-[4-(pyrimidin-5-yl)phenyl]-4,5-dihydro-3H-2,3-benzodiazepine-3-carboxamide]	810	80
CNC(=O)N1N=C(c2ccc(N3C[C@@H](C)NC[C@@H]3C)cc2)c2cc(OC)c(OC)cc2CC1C (mixture of isomers) [Example 192, (±)-1-{4-[(2S,5R)-2,5-dimethylpiperazin-1-yl]phenyl}-7,8-dimethoxy-N,4-dimethyl-4,5-dihydro-3H-2,3-benzodiazepine-3-carboxamide]	270	90
CNC(=O)N1N=C(c2ccc(F)c(-c3c(C)noc3C)c2)c2cc(OC)c(OC)cc2CC1C (racemic) [Example 58, (±)-1-[3-(3,5-dimethylisoxazol-4-yl)-4-fluoroophenyl]-7,8-dimethoxy-N,4-dimethyl-4,5-dihydro-3H-2,3-benzodiazepine-3-carboxamide]	990	250
CNC(=O)N1N=C(c2ccc(-c3ccccc3OC)cc2)c2cc(OC)c(OC)cc2CC1C (racemic) [Example 90, (±)-7,8-dimethoxy-1-(2′-methoxybiphenyl-4-yl)-N,4-40dimethyl-4,5-dihydro-3H-2,3-benzodiazepine-3-carboxamide]	460	70
CNC(=O)N1N=C(c2ccc(N3CCC(O)CC3)cc2)c2cc(OC)c(OC)cc2CC1C (racemic) [Example 130, (±)-1-[4-(4-hydroxypiperidin-1-yl)phenyl]-7,8-dimethoxy-N,4-dimethyl-4,5-dihydro-3H-2,3-benzodiazepine-3-carboxamide]	170	30
CNC(=O)N1N=C(c2ccc(-c3ccc(C(=O)NC4CC4)cc3)cc2)c2cc(OC)c(OC)cc2CC1C (racemic) [Example 83, (±)-1-[4′-(cyclopropylcarbamoyl)biphenyl-4-yl]-7,8-dimethoxy-N,4-dimethyl-4,5-dihydro-3H-2,3-benzodiazepine-3-carboxamide]	450	30
COc1cc2c(cc1OC)C(c1ccc(-c3c(C)noc3C)cc1)=NN(C(C)=O)C(C)C2 (racemic) [Example 246, (±)-1-{1-[4-(3,5-dimethyl-1,2-oxazol-4-yl)phenyl]-7,8-dimethoxy-4-methyl-4,5-dihydro-3H-2,3-benzodiazepin-3-yl}ethanone]	2060	330
CNC(=O)N1N=C(c2ccc(F)c(-c3c(C)nn(C)c3C)c2)c2cc(OC)c(OC)cc2CC1C (racemic) [Example 56, (±)-1-[4-fluoro-3-(1,3,5-trimethyl-1H-pyrazol-4-yl)phenyl]-7,8-dimethoxy-N,4-dimethyl-4,5-dihydro-3H-2,3-benzodiazepine-3-carboxamide]	900	180

The next lines start with the values.

IC50 [1] [nM]	IC50 [2] [nM]	Structure (SMILES)
200	20	CNC(=O)N1N=C(c2ccc(N3CCS(=O)(=O)CC3)cc2)c2cc(OC)c(OC)cc2C[C@@H]1C [Example 136, (4S)-1-[4-(1,1-dioxidothiomorpholin-4-yl)phenyl]-7,8-dimethoxy-N,4-dimethyl-4,5-dihydro-3H-2,3-benzodiazepine-3-carboxamide]
2550	90	CNC(=O)N1N=C(c2ccc(-c3ccc(C#N)cc3)cc2)c2cc(OC)c(OC)cc2CC1C (racemic) [Example 106, (±)-1-(4′-cyanobiphenyl-4-yl)-7,8-dimethoxy-N,4-dimethyl-4,5-dihydro-3H-2,3-benzodiazepine-3-carboxamide]
560	110	CNC(=O)N1N=C(c2ccc(-c3cccc(OC)c3)cc2)c2cc(OC)c(OC)cc2CC1C (racemic) [Example 87, (±)-7,8-dimethoxy-1-(3′-methoxybiphenyl-4-yl)-N,4-dimethyl-4,5-dihydro-3H-2,3-benzodiazepine-3-carboxamide]
370	110	CNC(=O)N1N=C(c2ccc(-c3ccc(C(F)(F)F)nc3)cc2)c2cc(OC)c(OC)cc2C[C@@H]1C [Example 50.1, (4S)-7,8-dimethoxy-N,4-dimethyl-1-{4-[6-(trifluoromethyl)pyridin-3-yl]phenyl}-4,5-dihydro-3H-2,3-benzodiazepine-3-carboxamide]
550	70	CNC(=O)N1N=C(c2cccc(N3CC(F)(F)C3)c2)c2cc(OC)c(OC)cc2CC1C (racemic) [Example 141, (±)-1-[3-(3,3-difluoroazetidin-1-yl)phenyl]-7,8-dimethoxy-N,4-dimethyl-4,5-dihydro-3H-2,3-benzodiazepine-3-carboxamide]
2190	730	CNC(=O)N1N=C(c2ccc(-c3c(C)noc3C)cc2)c2cc(N3CCOCC3)ccc2C[C@H]1C [Example 176.1, (4R)-1-[4-(3,5-Dimethylisoxazol-4-yl)phenyl]-N,4-dimethyl-8-(morpholin-4-yl)-4,5-dihydro-3H-2,3-benzodiazepine-3-carboxamide]
1990	710	CC[C@H]1Cc2cc(OC)c(OC)cc2C(c2ccc(N3CCN(C)CC3)cc2)=NN1C(=O)NC [Example 201.1, (4S)-4-ethyl-7,8-dimethoxy-N-methyl-1-[4-(4-methylpiperazin-1-yl)phenyl]-4,5-dihydro-3H-2,3-benzodiazepine-3-carboxamide]
460	50	CNC(=O)N1N=C(c2ccc(-c3ccc(C(=O)N4CCOCC4)cc3)cc2)c2cc(OC)c(OC)cc2CC1C (racemic) [Example 79, (±)-7,8-dimethoxy-N,4-dimethyl-1-[4′-(morpholin-4-ylcarbonyl)biphenyl-4-yl]-4,5-dihydro-3H-2,3-benzodiazepine-3-carboxamide]
630	70	CNC(=O)N1N=C(c2ccc(-c3ccc(OC)nc3)cc2)c2cc(OC)c(OC)cc2CC1C (racemic) [Example 66, (±)-7,8-dimethoxy-1-[4-(6-methoxypyridin-3-yl)phenyl]-N,4-dimethyl-4,5-dihydro-3H-2,3-benzodiazepine-3-carboxamide]
410	90	CNC(=O)N1N=C(c2ccc(-c3cc(O)cc(F)c3)cc2)c2cc(OC)c(OC)cc2CC1C (racemic) [Example 119, (±)-1-(3′-fluoro-5′-hydroxybiphenyl-4-yl)-7,8-dimethoxy-N,4-dimethyl-4,5-diliydro-3H-2,3-benzodiazepine-3-carboxamide]
840	170	CNC(=O)N1N=C(c2cccc(N3CCN(C)CC3)c2)c2cc(OC)c(OC)cc2CC1C (racemic) [Example 143, (±)-7,8-dimethoxy-N,4-dimethyl-1-[3-(4-methylpiperazin-1-yl)phenyl]-4,5-dihydro 3H-2,3-benzodiazepine-3-carboxamide]
2110	570	CNC(=O)N1N=C(c2ccc(-c3ccc(Cl)cc3Cl)cc2)c2cc(OC)c(OC)cc2CC1C (racemic) [Example 61, (±)-1-(2′,4′-dichlorobiphenyl-4-yl)-7,8-dimethoxy-N,4-dimethyl-4,5-dihydro-3H-2,3-benzodiazepine-3-carboxamide]
1180	380	CNC(=O)N1N=C(c2ccc(Cl)cc2)c2cc(OCCN3CCOCC3)ccc2CC1C (racemic) [Example 32, (±)-1-(4-Chlorophenyl)-N,4-dimethyl-8-[2-(morpholin-4-yl)ethoxy]-4,5-dihydro-3H-2,3-benzodiazepine-3-carboxamide]
5140	960	CNC(=O)N1N=C(c2ccc(-c3sc(C)nc3C)cc2)c2cc(OC)c(OC)cc2C[C@@H]1C (single isomer, unassigned) [Example 46.1]
260	30	CNC(=O)N1N=C(c2ccc(-c3cnccc3OC)cc2)c2cc(OC)c(OC)cc2CC1C (racemic) [Example 104, (±)-7,8-dimethoxy-1-[4-(4-methoxypyridin-3-yl)phenyl]-N,4-dimethyl-4,5-dihydro-3H-2,3-benzodiazepine-3-carboxamide]
